Measurements as given in patent US9012594B2, “Catalyst and byproduct-free native chemical ligation using cyclic thioester precursors” (Northwestern University, priority 2010, dated 2015).

System: cells
Assay: Cell adhesion on peptide-functionalized hydrogel
Format: cell-based
Conditions: peptide at 1% of the total cysteine groups used for hydrogel formation
Source text: The methods of macromonomer and hydrogel formation described herein provide biocompatible macromonomers and hydrogels which are easily modified with bioactive materials to improve functions of encapsulated cells such as supporting cell growth, and the development and secretion of cellular products upon biological stimulus. By “bioactive” we mean a substance that has or cause an effect on in biological samples. In this work, the macromonomers and hydrogels were further functionalized with peptides, although other bioactive materials may be used, such as proteins, growth factors, DNA, RNA. Peptides were functionalized through the Michael addition reaction between 4A-PEG-Cys and maleimide-terminated peptides prior to the cross-linking between 4A-PEG-Cys and 4A-PEG-CThE. This reaction is quantitative and fast, providing a good control over the density of peptides attached to the resulted hydrogel. Such strategy works well, when the physiological effects of peptides on cells can be achieved at low immobilization density.

Substance: GRGDSPG (maleimide-GRGDSPG-NH2; also: conjugated to 4A-PEG-Cys) [cell adhesion peptide, maleimide-terminated, attached to 4A-PEG-Cys by Michael addition]
- cell adhesion: sufficient to support cell adhesion
